Laboratory results reported in publication PMC4857387, “The Arabidopsis NPF3 protein is a GA transporter” (Nature Communications, 2016).

T1: NPF4.1 (AIT3) (Arabidopsis thaliana, UniProt Q9LSF0)
T1 sequence (Q9LSF0 1-515): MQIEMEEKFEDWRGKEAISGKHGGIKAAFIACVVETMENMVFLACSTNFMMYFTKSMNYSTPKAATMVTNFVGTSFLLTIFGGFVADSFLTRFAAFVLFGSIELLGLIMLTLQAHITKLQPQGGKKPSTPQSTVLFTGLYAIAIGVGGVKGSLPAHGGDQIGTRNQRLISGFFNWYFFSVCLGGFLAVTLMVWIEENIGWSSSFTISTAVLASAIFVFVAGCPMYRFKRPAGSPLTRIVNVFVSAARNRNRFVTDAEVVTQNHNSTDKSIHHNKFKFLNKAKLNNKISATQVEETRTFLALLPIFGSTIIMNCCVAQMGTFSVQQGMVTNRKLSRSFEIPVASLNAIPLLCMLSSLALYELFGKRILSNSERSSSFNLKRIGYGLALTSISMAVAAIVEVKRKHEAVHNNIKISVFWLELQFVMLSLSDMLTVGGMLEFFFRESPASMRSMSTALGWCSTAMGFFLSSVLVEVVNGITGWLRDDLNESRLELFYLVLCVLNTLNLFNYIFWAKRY

B1: NPF3 (NPF3.1, AtNPF3.1) (Arabidopsis thaliana) (protein)
chain: MEEQSKNKISEEEKQLHGRPNRPKGGLITMPFIFANEICEKLAVVGFHANMISYLTTQLHLPLTKAANTLTNFAGTSSLTPLLGAFIADSFAGRFWTITFASIIYQIGMTLLTISAIIPTLRPPPCKGEEVCVVADTAQLSILYVALLLGALGSGGIRPCVVAFGADQFDESDPNQTTKTWNYFNWYYFCMGAAVLLAVTVLVWIQDNVGWGLGLGIPTVAMFLSVIAFVGGFQLYRHLVPAGSPFTRLIQVGVAAFRKRKLRMVSDPSLLYFNDEIDAPISLGGKLTHTKHMSFLDKAAIVTEEDNLKPGQIPNHWRLSTVHRVEELKSVIRMGPIGASGILLITAYAQQGTFSLQQAKTMNRHLTNSFQIPAGSMSVFTTVAMLTTIIFYDRVFVKVARKFTGLERGITFLHRMGIGFVISIIATLVAGFVEVKRKSVAIEHGLLDKPHTIVPISFLWLIPQYGLHGVAEAFMSIGHLEFFYDQAPESMRSTATALFWMAISIGNYVSTLLVTLVHKFSAKPDGSNWLPDNNLNRGRLEYFYWLITVLQAVNLVYYLWCAKIYTYKPVQVHHSKEDSSPVKEELQLSNRSLVDE
notes: putative 12 transmembrane domains

How the values were obtained:
[1] = molecular target: T1, NPF4.1 (AIT3); assay: competition of GA4 uptake in Xenopus oocytes, LC-MS; format: cell-based; details: 300 uM GA4 with 5 mM JA-Ile
[2] = substrate: C=C1C[C@]23C[C@H]1CC[C@H]2[C@@]12CC[C@H](O)[C@@](C)(C(=O)O1)[C@H]2[C@@H]3C(=O)O; assay: uptake into Xenopus oocytes, LC-MS; format: cell-based, Arabidopsis thaliana; details: pH 5, 60 min incubation, diffusion into non-injected oocytes subtracted, judged by authors a likely overestimation

| Molecule | inhibition of GA4 uptake at 5 mM [1] | Km [2] |
| --- | --- | --- |
| CC/C=C\C[C@H]1C(=O)CC[C@@H]1CC(=O)N[C@H](C(=O)O)[C@@H](C)CC [JA-Ile] | JA-Ile strongly inhibited GA4 uptake |  |
| B1 |  | 500 µM |
